Tests used:
[1] = molecular target: T1, Phosphatidylinositol 4,5-bisphosphate 3-kinase catalytic subunit delta isoform (Homo sapiens, UniProt O00329); test: Inhibition of PI3K-delta (unknown origin)
T1 sequence (O00329 whole entry): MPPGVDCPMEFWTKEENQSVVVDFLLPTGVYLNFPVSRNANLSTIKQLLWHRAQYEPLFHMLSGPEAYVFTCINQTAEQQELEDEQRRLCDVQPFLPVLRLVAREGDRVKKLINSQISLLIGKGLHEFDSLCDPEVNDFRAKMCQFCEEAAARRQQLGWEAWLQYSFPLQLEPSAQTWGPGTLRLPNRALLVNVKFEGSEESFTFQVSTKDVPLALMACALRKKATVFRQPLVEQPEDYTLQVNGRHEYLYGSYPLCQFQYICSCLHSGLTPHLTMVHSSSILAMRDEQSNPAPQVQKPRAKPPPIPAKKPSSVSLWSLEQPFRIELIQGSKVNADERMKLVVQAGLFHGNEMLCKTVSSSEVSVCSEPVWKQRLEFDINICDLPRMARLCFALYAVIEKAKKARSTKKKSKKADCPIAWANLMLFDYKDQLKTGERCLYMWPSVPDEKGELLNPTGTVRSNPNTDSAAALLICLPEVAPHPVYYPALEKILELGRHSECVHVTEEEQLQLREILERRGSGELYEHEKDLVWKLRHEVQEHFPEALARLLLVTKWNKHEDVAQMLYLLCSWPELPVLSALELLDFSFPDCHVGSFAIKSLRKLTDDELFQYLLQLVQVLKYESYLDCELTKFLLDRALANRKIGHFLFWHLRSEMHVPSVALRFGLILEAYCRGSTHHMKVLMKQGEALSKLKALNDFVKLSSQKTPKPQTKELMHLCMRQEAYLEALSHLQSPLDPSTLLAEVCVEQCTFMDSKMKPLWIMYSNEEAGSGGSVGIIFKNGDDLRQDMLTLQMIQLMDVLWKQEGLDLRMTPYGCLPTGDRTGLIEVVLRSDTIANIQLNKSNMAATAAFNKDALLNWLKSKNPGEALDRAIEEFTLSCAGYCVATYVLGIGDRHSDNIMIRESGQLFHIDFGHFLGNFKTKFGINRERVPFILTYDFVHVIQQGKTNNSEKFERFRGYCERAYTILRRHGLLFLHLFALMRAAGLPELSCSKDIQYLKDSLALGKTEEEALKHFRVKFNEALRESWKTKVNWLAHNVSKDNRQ

[2] = molecular target: Cyclin-dependent kinase 2/cyclin A (Homo sapiens, UniProt P24941); test: Inhibition of human CDK2/cyclinA using histone H1 as substrate incubated for 30 mins in presence of gamma[32P]ATP by phosphoimaging analysis; assay type: protein-complex assay
HMEC = test: Inhibition of cell migration in HMECs at 10 uM measured after 16 hrs by fluorescence based assay; assay type: functional; conditions: Homo sapiens
[3] = Antiproliferative activity against HUVEC cells assessed as cell growth inhibition measured after 72 hrs by crystal violet staining based analysis; assay type: toxicity; conditions: human
Janus Kinase (JAK) = Janus Kinase (JAK) (Homo sapiens, UniProt P52333+P23458+O60674+P29597); test: Inhibition of JAK (unknown origin); assay type: protein assay
[4] = molecular target: Tyrosine-protein kinase SYK (Homo sapiens, UniProt P43405); test: Inhibition of SYK (unknown origin) using biotinylated EDPDYEWPSA as substrate incubated for 30 mins in presence of 33P-ATP by Scintillation Proximity Assay
[5] = molecular target: Phosphatidylinositol 4,5-bisphosphate 3-kinase catalytic subunit alpha isoform (Homo sapiens, UniProt P42336); test: Inhibition of PI3K-p110alpha (unknown origin) incubated for 30 mins by fluorescence polarization assay
CDK9/Cyclin T = CDK9/Cyclin T (Homo sapiens, UniProt P50750); test: Inhibition of CDK9/Cyclin T (unknown origin) using (YSPTSPS)3 peptide as substrate incubated for 30 mins in presence of gamma[33P]ATP by digital imaging analysis; assay type: protein-complex assay
[6] = molecular target: Cyclin-dependent kinase 2/cyclin E (Homo sapiens, UniProt P24941); test: Inhibition of CDK2/Cyclin E (unknown origin) using histone as substrate incubated for 30 mins in presence of gamma[33P]ATP by digital imaging analysis; assay type: protein-complex assay
MCF7 = test: Cytotoxicity against human MCF7 cells incubated for 48 hrs by SRB assay; assay type: functional, cell-based; conditions: MCF7, 48 h
[7] = molecular target: T1, Phosphatidylinositol 4,5-bisphosphate 3-kinase catalytic subunit delta isoform; test: Inhibition of human PI3K-delta using PIP2 as substrate in presence of gamma[32P]ATP
[8] = molecular target: Serine/threonine-protein kinase mTOR (Homo sapiens, UniProt P42345); test: Inhibition of mTOR (unknown origin)

CDK9/Cyclin T, sequence (O60563 whole entry): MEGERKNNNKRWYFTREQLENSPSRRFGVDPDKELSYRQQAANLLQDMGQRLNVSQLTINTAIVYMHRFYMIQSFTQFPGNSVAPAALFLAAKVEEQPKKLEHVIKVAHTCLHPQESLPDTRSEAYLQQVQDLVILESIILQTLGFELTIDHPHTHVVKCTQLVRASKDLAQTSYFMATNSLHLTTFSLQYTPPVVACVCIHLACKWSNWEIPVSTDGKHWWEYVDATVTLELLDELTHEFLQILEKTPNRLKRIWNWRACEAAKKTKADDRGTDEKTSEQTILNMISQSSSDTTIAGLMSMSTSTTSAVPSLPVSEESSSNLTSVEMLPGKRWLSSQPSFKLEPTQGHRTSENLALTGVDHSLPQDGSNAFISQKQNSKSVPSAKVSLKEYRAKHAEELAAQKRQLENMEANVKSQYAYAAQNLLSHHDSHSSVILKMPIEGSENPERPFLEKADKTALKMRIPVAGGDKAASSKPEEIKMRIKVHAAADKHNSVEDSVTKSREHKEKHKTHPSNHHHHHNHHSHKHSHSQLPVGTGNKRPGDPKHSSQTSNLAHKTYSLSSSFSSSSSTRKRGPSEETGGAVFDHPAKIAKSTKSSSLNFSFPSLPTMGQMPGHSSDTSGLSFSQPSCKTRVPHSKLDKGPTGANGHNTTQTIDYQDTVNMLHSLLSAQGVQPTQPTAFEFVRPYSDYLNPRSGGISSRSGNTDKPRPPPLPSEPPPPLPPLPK
CDK9/Cyclin T, sequence (P50750 whole entry): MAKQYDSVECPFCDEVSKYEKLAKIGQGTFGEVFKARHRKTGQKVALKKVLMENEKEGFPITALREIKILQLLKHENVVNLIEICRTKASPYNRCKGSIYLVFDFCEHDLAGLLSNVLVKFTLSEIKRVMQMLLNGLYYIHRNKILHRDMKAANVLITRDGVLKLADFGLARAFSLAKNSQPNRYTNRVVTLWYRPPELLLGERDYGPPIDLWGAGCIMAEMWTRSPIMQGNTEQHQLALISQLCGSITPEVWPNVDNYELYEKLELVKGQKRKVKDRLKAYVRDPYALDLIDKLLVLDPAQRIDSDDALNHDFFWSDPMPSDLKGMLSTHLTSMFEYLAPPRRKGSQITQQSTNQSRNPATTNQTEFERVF
CDK9/Cyclin T, sequence (O60583 whole entry, further chain): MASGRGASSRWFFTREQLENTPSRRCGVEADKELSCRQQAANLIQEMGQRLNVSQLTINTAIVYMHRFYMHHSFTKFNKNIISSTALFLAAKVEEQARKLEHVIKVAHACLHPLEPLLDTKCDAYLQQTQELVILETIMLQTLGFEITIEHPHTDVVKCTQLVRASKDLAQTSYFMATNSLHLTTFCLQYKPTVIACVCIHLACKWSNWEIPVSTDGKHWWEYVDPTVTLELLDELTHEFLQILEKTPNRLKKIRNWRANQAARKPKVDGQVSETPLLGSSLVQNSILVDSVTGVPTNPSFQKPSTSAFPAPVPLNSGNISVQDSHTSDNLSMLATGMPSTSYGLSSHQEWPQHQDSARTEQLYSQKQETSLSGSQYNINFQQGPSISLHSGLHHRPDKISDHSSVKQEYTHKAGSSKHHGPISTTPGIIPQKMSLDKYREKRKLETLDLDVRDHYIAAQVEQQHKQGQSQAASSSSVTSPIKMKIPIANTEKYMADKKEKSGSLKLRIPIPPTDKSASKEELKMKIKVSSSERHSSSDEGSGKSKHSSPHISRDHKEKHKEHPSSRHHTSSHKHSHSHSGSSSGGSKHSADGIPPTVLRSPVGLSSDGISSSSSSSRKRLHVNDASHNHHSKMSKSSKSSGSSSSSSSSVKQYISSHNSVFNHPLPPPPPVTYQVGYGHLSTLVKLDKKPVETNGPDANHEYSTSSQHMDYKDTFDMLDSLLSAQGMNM
Phosphatidylinositol 4,5-bisphosphate 3-kinase catalytic subunit alpha isoform, sequence (P42336 whole entry, canonical isoform): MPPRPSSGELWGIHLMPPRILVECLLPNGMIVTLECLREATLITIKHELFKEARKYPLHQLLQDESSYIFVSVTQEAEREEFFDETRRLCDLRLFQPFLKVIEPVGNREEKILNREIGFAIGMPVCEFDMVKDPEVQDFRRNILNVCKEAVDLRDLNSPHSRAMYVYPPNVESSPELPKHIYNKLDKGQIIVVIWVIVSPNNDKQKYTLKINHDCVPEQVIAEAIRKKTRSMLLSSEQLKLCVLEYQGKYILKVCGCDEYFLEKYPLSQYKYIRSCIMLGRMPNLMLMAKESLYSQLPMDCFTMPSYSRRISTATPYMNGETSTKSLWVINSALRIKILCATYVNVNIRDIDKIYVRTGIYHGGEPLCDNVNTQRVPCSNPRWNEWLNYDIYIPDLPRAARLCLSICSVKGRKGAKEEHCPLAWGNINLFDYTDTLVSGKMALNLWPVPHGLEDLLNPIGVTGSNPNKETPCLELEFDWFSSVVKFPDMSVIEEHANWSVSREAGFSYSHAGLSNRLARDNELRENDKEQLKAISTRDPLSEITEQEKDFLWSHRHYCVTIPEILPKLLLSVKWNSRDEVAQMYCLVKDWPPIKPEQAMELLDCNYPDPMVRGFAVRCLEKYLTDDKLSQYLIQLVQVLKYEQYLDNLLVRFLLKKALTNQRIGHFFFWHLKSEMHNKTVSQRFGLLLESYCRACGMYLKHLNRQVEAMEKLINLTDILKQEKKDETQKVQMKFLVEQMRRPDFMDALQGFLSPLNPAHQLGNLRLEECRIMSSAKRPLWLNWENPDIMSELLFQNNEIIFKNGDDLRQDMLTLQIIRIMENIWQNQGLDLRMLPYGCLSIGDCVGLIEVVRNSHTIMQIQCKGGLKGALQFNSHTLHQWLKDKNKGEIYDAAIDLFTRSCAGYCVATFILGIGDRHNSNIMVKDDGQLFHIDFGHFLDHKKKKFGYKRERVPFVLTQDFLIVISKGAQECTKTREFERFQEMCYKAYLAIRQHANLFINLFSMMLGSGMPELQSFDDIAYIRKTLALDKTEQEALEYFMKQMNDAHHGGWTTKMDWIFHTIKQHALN

Question: For `OCCn1cnc2c(-c3cn[nH]c3)nc(N3CCOCC3)nc21`, which IC50 [1] is on record?
Answer: Its IC50 is < 30 nM.

Question: For `CC(C)[C@H](CO)Nc1nc(Nc2ccc(Cl)c(N)c2)c2ncn(C(C)C)c2n1`, which IC50 [2] is on record?
Answer: The IC50 was < 50 nM.

Question: Which IC50 [2] does the source give for `CC(C)[C@H](CO)Nc1nc(Nc2ccc(Cl)c(C(=O)O)c2)c2ncn(C(C)C)c2n1` here?
Answer: Its IC50 is < 50 nM.

Question: For `CC[C@@H](CO)Nc1nc(NCc2cccc(OC)c2O)c2ncn(C(C)C)c2n1`, which inhibition at 10 µM (HMEC) is on record?
Answer: Its inhibition at 10 µM is 14%.

Question: And the EC50 at 72 h [3]?
Answer: Its EC50 at 72 h is 2850 nM.

Question: For `NC(=O)[C@@H]1[C@H](Nc2nc(Nc3cccc(S(N)(=O)=O)c3)nc3[nH]cnc23)[C@H]2C=C[C@@H]1C2`, which IC50 (Janus Kinase (JAK)) is on record?
Answer: Its IC50 is < 1 nM.

Question: Which IC50 (Janus Kinase (JAK)) does the source give for `COc1cc(Nc2nc(NC3C4C=CC(C4)C3C(N)=O)c3nc[nH]c3n2)cc(OC)c1OC` (centres undefined) here?
Answer: The IC50 was < 1 nM.

Question: For `c1nc2c(NC3CC4CCC3C4)nc(Nc3ccc(N4CCCCC4)cc3)nc2[nH]1` (centres undefined), which IC50 (Janus Kinase (JAK)) is on record?
Answer: Its IC50 is < 1 nM.

Question: Which IC50 [4] does the source give for `C/C=N/Nc1ccc(Nc2nc(NCC)c3nc[nH]c3n2)cc1` here?
Answer: Its IC50 is 5 nM.

Question: With `CC(C)(C)c1nc2c(N3CCOCC3)nc(-c3cccc4[nH]ccc34)nc2n1CCO` as the compound, how does the IC50 [5] read?
Answer: Its IC50 is < 10 nM.

Question: With `CC(C)Oc1cccc(Nc2nc(NC3C4C=CC(C4)C3C(N)=O)c3nc[nH]c3n2)c1` (centres undefined) as the compound, how does the IC50 (Janus Kinase (JAK)) read?
Answer: Its IC50 is < 1 nM.

Question: With `CCC(CO)Nc1nc(NCc2cc(C)ccc2O)c2ncn(C(C)C)c2n1` (centres undefined) as the compound, how does the IC50 (CDK9/Cyclin T) read?
Answer: Its IC50 is 6 nM.

Question: Which IC50 [1] does the source give for `CS(=O)(=O)N1CCN(CCn2cnc3c(-n4c(C(F)F)nc5ccccc54)nc(N4CCOCC4)nc32)CC1` here?
Answer: Its IC50 is < 30 nM.

Question: With `CC(C)n1cnc2c(NCc3cc(F)ccc3O)nc(NC3CCC(N)CC3)nc21` (centres undefined) as the compound, how does the IC50 [6] read?
Answer: Its IC50 is 20 nM.

Question: What about the IC50 (CDK9/Cyclin T) of the same compound?
Answer: Its IC50 is 8 nM.

Question: Which IC50 (MCF7) does the source give for `Cc1nn(-c2ccccc2)c2ncnc(Nc3ccc(C(=O)N4CCOCC4)cc3)c12` here?
Answer: Its IC50 is 14900 nM.

Question: Which IC50 [6] does the source give for `COc1cccc(CNc2nc(NC3CCC(N)CC3)nc3c2ncn3C(C)C)c1O` (centres undefined) here?
Answer: Its IC50 is 20 nM.

Question: What about the IC50 (CDK9/Cyclin T) of the same compound?
Answer: Its IC50 is 9 nM.

Question: Which IC50 [5] does the source give for `Cc1nc(N)ncc1-c1nc(N2CCOCC2)c2nc(C(C)(C)C)n(CCO)c2n1` here?
Answer: The IC50 was < 10 nM.

Question: Which IC50 (CDK9/Cyclin T) does the source give for `COc1cccc(CNc2nc(NC3CCCCC3N)nc3c2ncn3C(C)C)c1O` (centres undefined) here?
Answer: Its IC50 is 7 nM.

Question: With `Cc1nn(-c2ccccc2)c2ncn(N)c(=O)c12` as the compound, how does the IC50 (MCF7) read?
Answer: The IC50 was 89200 nM.

Question: For `CC[C@@H](CO)Nc1nc(NCc2ccccc2O)c2ncn(C(C)C)c2n1`, which EC50 at 72 h [3] is on record?
Answer: Its EC50 at 72 h is 1590 nM.

Question: Which IC50 [7] does the source give for `CCC(Nc1ncnc2[nH]cnc12)c1nc2cccc(Cl)c2c(=O)n1-c1c(F)cccc1F` (centres undefined) here?
Answer: The IC50 was 26 nM.

Question: For `CCC(Nc1ncnc2[nH]cnc12)c1nc2cccc(C)c2c(=O)n1-c1cc(F)cc(F)c1` (centres undefined), which IC50 [7] is on record?
Answer: The IC50 was 12 nM.

Question: With `CC(C)(C)Nc1nc(Nc2ccc(CC(=O)O)cc2)nc2[nH]cnc12` as the compound, how does the IC50 [4] read?
Answer: Its IC50 is 5 nM.

Question: For `CC(C)[C@H](CO)Nc1nc(Nc2cccc(Cl)c2)c2ncn(C(C)C)c2n1` [PURVALANOLA], which IC50 [2] is on record?
Answer: The IC50 was < 50 nM.

Question: Which IC50 (Janus Kinase (JAK)) does the source give for `NC(=O)C1C2C=CC(C2)C1Nc1nc(Nc2cccc(S(N)(=O)=O)c2)nc2[nH]cnc12` (centres undefined) here?
Answer: The IC50 was < 1 nM.

Question: For `O=C(Nc1ccc(-c2nc(C3=CCOCC3)c3cnn(CC(F)(F)F)c3n2)cc1)Nc1cccnc1`, which IC50 [8] is on record?
Answer: The IC50 was 2.4 nM.

Question: For `CC[C@H](Nc1ncnc2[nH]cnc12)c1nc2cccc(Cl)c2c(=O)n1-c1cc(F)cc(F)c1`, which IC50 [7] is on record?
Answer: The IC50 was 45 nM.

Question: For `CC(=O)N1N=C(c2ccc(Nc3ncnc4c3c(C)nn4-c3ccccc3)cc2)CC1c1ccc(Cl)cc1` (centres undefined), which IC50 (MCF7) is on record?
Answer: Its IC50 is 14900 nM.

Question: With `CC(C)C(CO)Nc1nc(Nc2cccc(Cl)c2)c2ncn(C(C)C)c2n1` (centres undefined) as the compound, how does the IC50 [2] read?
Answer: Its IC50 is < 50 nM.

Question: Which inhibition at 10 µM (HMEC) does the source give for `CC[C@H](CO)Nc1nc(NCc2cccc(OC)c2O)c2ncn(C(C)C)c2n1` here?
Answer: Its inhibition at 10 µM is 54%.

Question: And the EC50 at 72 h [3]?
Answer: The EC50 at 72 h was 7120 nM.

Question: For `CC(C)Nc1nc(Nc2ccc(S(=O)(=O)N(C)C)cc2)nc2[nH]cnc12`, which IC50 [4] is on record?
Answer: The IC50 was 5 nM.

— ChEMBL document CHEMBL5252519, “Design strategies, structure activity relationship and mechanistic insights for purines as kinase inhibitors” (Eur J Med Chem, 2016)
